Measurements: US11162937B2, “Patient selection method for inflammation” (Purdue Research Foundation, priority 2013, dated 2021)

Experiments:
CIA mice [1] = test: Collagen-induced arthritis (CIA) mice: ^99mTc-EC20 radioimaging, arthritis score and paw thickness under anti-inflammatory therapy; details: for disease symptoms (arthritis score, paw swelling) relative to disease control / uptake of ^99mTc-EC20 in the affected appendages relative to disease control: day 3 of therapy; for uptake of ^99mTc-EC20 in the affected appendages relative to disease control: 150 μCi ^99mTc-EC20 i.p., imaged after 4 h
Protocol: Collagen-induced arthritis (CIA) was initiated using established methods on 6-7 week old female DBA/1 mice (Jackson Laboratories) maintained on folate-deficient diet (Harlan-Teklad). Briefly, mice were immunized at the base of the tail with 100 μg bovine type II collagen emulsified in complete Freund's adjuvant (Chondrex, Inc., Redmond, Wash., USA). Mice were then boosted 21 days later with a similar injection of 100 μg bovine type II collagen emulsified in incomplete Freund's adjuvant. After four days, onset of arthritis was synchronized in all mice with an intraperitoneal injection of 25 μg lipopolysaccharide (LPS) dissolved in saline. Three days later mice were distributed equally across control and treatment groups (n=5). Healthy mice and disease control mice received daily intraperitoneal injections of 100 μL saline. […] Arthritis scores were assessed every other day by researchers blinded to the various treatment groups, using the following scoring system: 0=normal; 1=mild, but definite redness and swelling of the ankle or wrist, or apparent redness and swelling limited to individual digits, regardless of the number of affected digits; 2=moderate redness and swelling of ankle or wrist; 3=severe redness and swelling of the entire paw including digits; 4=maximally inflamed limb with involvement of multiple joints. A total score for each mouse was calculated by summing the scores for each of the four paws, allowing a maximum possible score of 16 per animal. Paw thickness was measured with calipers every other day starting on the first day of treatment. On day 3 of treatment, mice were anesthetized with isoflurane and imaged with ^99mTc-EC20 as described below. Mice were again imaged and then euthanized by CO2 asphyxiation on day 11 of treatment.
(§1) ^99mTc-EC20 was prepared as previously described in C. P. Leamon, M. A. Parker, I. R. Vlahov, L. Xu, J. A. Reddy, M. Vetzel, N. Douglas, Synthesis and Biological Evaluation of EC20: A New Folate-Derived, ^99mTc-Based Radiopharmaceutical. Bioconjugate Chem. 13, 1200-1210 (2002), incorporated herein by reference. A preparation method for ^99mTc-EC20 is also described in U.S. Pat. No. 7,128,893, incorporated herein by reference. Briefly, 1 mL of 15 mCi/mL sodium pertechnetate (Cardinal Health) was added to 0.1 mg of EC20 (a gift from Endocyte, Inc.) and heated at 100° C. for 18 min. After diluting with saline, 100 μL ^99mTc-EC20 (150 μCi (˜75 nmol of EC20 per kilogram for CIA, ulcerative colitis and pulmonary fibrosis mice) or 300 μCi (˜150 nmol of EC20 per kilogram for atherosclerosis)) was injected intraperitoneally into the desired mice, and unbound ^99mTc-EC20 was allowed to clear from tissues for 4 h. Mice were then either anesthetized with 3% isoflurane (CIA, atherosclerosis, and pulmonary fibrosis mice) or euthanized (ulcerative colitis mice) prior to image acquisition using a Kodak Image Station operated with Kodak molecular imaging software (version 4.5; Carestream Molecular Imaging). Radioimages were acquired for 2 minutes using a radioisotopic phosphor screen, no illumination source, 4×4 binning, focal plane=5, FOV=160, and f-stop=0. White light images were acquired for 0.175 seconds with white light transillumination source, no binning, focal plane=5, FOV=160, and f-stop=11.
Mice were induced to develop collagen-induced arthritis (CIA, a well-established model of rheumatoid arthritis) and subjected 28 days later to treatment with methotrexate, dexamethasone or saline (disease control). Three days after initiation of therapy, the mice were injected with 150 μCi of ^99mTc-EC20 and subjected to their first planned radioimage analysis.

[2] = test system: mice with ulcerative colitis; test: DSS-induced ulcerative colitis mice: ^99mTc-EC20 radioimaging of colon, clinical score and colon length under therapy; assay type: in vivo; details: for clinical scores compared to disease control mice / colon shortening compared to disease control mice: after 8 days of continuous therapy; for clinical scores or colon lengths relative to saline-treated mice / ^99mTc-EC20 uptake in colon relative to saline-treated mice: day 4 of therapy; for ^99mTc-EC20 uptake in colon relative to saline-treated mice: 150 μCi ^99mTc-EC20; for ^99mTc-EC20 radioimages compared with the earlier time point (day 4): day 8 of therapy
Protocol: Ulcerative colitis was induced as previously described in S. Wirtz, C. […] Nat Protoc. 2, 541-546 (2007), incorporated herein by reference. Seven week old Balb/c mice (Harlan Laboratories) maintained on a folate-deficient diet were administered 5% dextran sodium sulfate (DSS) in their drinking water. Mice were divided into treatment groups (n=10 per group). Healthy mice and disease control mice received 100 μL saline daily by oral gavage. Diseased mice were treated daily with cimetidine (100 mg/kg) or sulphasalazine (150 mg/kg) by oral gavage. Healthy mice were maintained on normal water and similarly treated with saline. Disease symptoms were assessed daily and quantitated by adding the scores from each of the following tests: Weight loss: 0=no weight loss, 1=1-5% weight loss, 2=6-10% weight loss, 3=11-15% weight loss, 4=>15% weight loss; Stool appearance: 0=normal, 1=loose feces, 2=diarrhea; Hematochezia (blood in stool): 0=no blood, 1=positive via guaiac paper, 2=visually bloody; Overall appearance: 0=normal, 1=ruffled fur/altered gait, 2=lethargic, moribund. On day 4 of therapy, half of each treatment group (n=5) received an intraperitoneal injection of ^99mTc-EC20. After 4 hours, the injected mice were euthanized and the bladder and kidneys were removed to reduce background radiation associated with ^99mTc-EC20 undergoing excretion. Mice were then imaged to assess uptake of ^99mTc-EC20 in the colon, and the colons were removed and measured with calipers to evaluate colon shortening as a measure of disease severity. On day 8, the remaining mice were injected with ^99mTc-EC20 and analyzed similarly.
as §1
Mice (n=10/group) were administered 5% dextran sulfate sodium (DSS) in water to induce ulcerative colitis and then treated daily with cimetidine, sulphasalazine or saline (disease control). Then on day 4, half of the mice (n=5/group) were injected with 150 μCi ^99mTc-EC20 and euthanized in preparation for subsequent imaging of their colons.

macrophage accumulation = test: Flow cytometric analysis (F480-PE) of macrophage accumulation in large intestine of ulcerative colitis mice; assay type: in vivo; details: after 4 days of treatment, F480-PE flow cytometry
Protocol: Ulcerative colitis was induced as described. Seven week old Balb/c mice (Harlan Laboratories) maintained on a folate-deficient diet were administered 5% dextran sodium sulfate (DSS) in their drinking water. Healthy control mice were maintained on normal water. Mice were divided into treatment groups (n=3 per group). Healthy mice and disease control mice received 100 μL saline daily by oral gavage. Diseased mice were treated daily with cimetidine (100 mg/kg) or sulphasalazine (150 mg/kg) by oral gavage. After 4 days of treatment, mice were euthanized and large intestines were removed. Equal weights of the large intestines were digested and made into single cell suspensions. Cells were included with mouse macrophage marker F480-PE and analyzed by flow cytometry.

CIA mice [3] = details: prior finding; cited from earlier work
ApoE−/− mice [4] = details: prior finding; cited from earlier work
ApoE−/− mice [5] = test: Atherosclerosis in ApoE−/− mice on high fat diet: ^99mTc-EC20 radioimaging and aortic histology under therapy; assay type: in vivo
Protocol: Five week old male ApoE−/− mice were purchased from Jackson Laboratories and placed on an adjusted calorie diet (42% from fat, Harlan Laboratories). Healthy control mice (C57BL/6) were similarly maintained on normal chow. Mice were divided into therapy groups (n=5). Healthy mice and disease control mice received 100 μL saline daily by oral gavage. Diseased mice were treated daily with valsartan (1 mg/kg), or fluvastatin (3 mg/kg) by oral gavage. After three weeks of treatment, mice were imaged with 300 μCi ^99mTc-EC20. Mice were again imaged with ^99mTc-EC20 after 12 weeks of therapy and then euthanized by CO2 asphyxiation. Aortas were dissected and H&E and oil red O staining was performed.
(§2) ^99mTc-EC20 was prepared as previously described in C.
The ability to predict response to therapy might be most useful when applied to treatment of inflammatory/autoimmune diseases that are either intrinsically difficult to monitor or slow to respond to therapeutic intervention. Because atherosclerosis suffers from both disadvantages due to its inaccessible location and slow rate of progression, ^99mTc-EC20 was analyzed to determine if it might be effective in predicting response to therapy in a common murine model of heart disease. […] After 3 weeks of daily treatment, when no morphological symptoms of heart disease could be detected, mice were anesthetized and imaged with ^99mTc-EC20.

[6] = test system: mice with pulmonary fibrosis; test: Bleomycin-induced pulmonary fibrosis mice: ^99mTc-EC20 radioimaging, BAL cell count, lung hydroxyproline, H&E; assay type: in vivo
Protocol: Pulmonary fibrosis was induced in mice as previously described in B. B. Moore, C. M. Hogaboam, Murine models of pulmonary fibrosis. Am J Physiol Lung Cell Mol Physiol. 294, L152-160 (2008), incorporated herein by reference. Briefly, 6 week old female C57BL/6 mice (Harlan Laboratories) maintained on a folate-deficient diet were anaesthetized with isoflurane, and 50 μL of bleomycin (2 U/kg body weight) dissolved in saline was intratracheally instilled into each mouse. Healthy control mice were similarly intratracheally instilled with 50 μL saline. Mice were then separated into treatment groups (n=5). […] Diseased mice were injected every day intraperitoneally with dexamethasone (0.5 mg/kg) or etanercept (300 μg). Mice were imaged with ^99mTc-EC20 after 6 days of treatment and again after 15 days of treatment. Mice were then euthanized by CO2 asphyxiation and bronchoalveolar lavage fluid was collected and cells were counted using a Beckman Coulter Z™ Series COULTER COUNTER® Cell and Particle Counter. The left lung was fixed in formalin and submitted to the Purdue Histology & Phenotyping Laboratory for H&E staining and the right lung was used for analysis of hydroxyproline content using a hydroxyproline assay kit from Sigma-Aldrich (St. Louis, Mo.).
as §2
Since pulmonary fibrosis is thought to be primarily driven by M2 macrophages, C57BL/6 mice were induced to develop an acute form of lung fibrosis by intratracheal instillation of bleomycin. Immediately following disease induction, mice were treated daily with intraperitoneal injections of dexamethasone, etanercept, or saline, and then imaged with ^99mTc-EC20 six days later.

Nc1nc2ncc(CNc3ccc(C(=O)N[C@H](CCC(=O)NC[C@@H]4[NH][99Tc]56(=[O])[S]C[C@@H](C(=O)O)[N]5C(=O)[C@H](CC(=O)O)[N]6C4=O)C(=O)O)cc3)nc2c(=O)[nH]1 [^99mTc-EC20]
accumulation of ^99mTc-EC20 in inflamed appendages (CIA mice [1]; CIA mice not treated with any anti-inflammatory drug, 150 μCi i.p.): exhibited the accumulation of ^99mTc-EC20 in their inflamed appendages

CN/C(=N/CCSCc1nc[nH]c1C)NC#N [cimetidine]
clinical scores compared to disease control mice [2]: significantly lower
colon shortening compared to disease control mice [2]: reduced colon shortening
clinical scores or colon lengths relative to saline-treated mice [2]: no significant difference
^99mTc-EC20 uptake in colon relative to saline-treated mice [2]: significantly less
^99mTc-EC20 radioimages compared with the earlier time point (day 4) [2]: essentially unchanged
macrophage accumulation in large intestine compared to the disease control group (macrophage accumulation): reduced macrophage accumulation

CN(Cc1cnc2nc(N)nc(N)c2n1)c1ccc(C(=O)N[C@@H](CCC(=O)O)C(=O)O)cc1 [methotrexate]
disease symptoms (arthritis score, paw swelling) relative to disease control (CIA mice [1]; CIA mice): no reduction
uptake of ^99mTc-EC20 in the affected appendages relative to disease control (CIA mice [1]; CIA mice): markedly less
disease symptoms / joint inflammation (arthritis score, paw thickness) relative to disease control (CIA mice [1]; CIA mice, day 11 of therapy): substantially resolved
uptake of ^99mTc-EC20 (radioimages) (CIA mice [1]; CIA mice, day 11 of therapy): significantly reduced uptake

COc1ccc2cc([C@H](C)C(=O)O)ccc2c1 [naproxen]
efficacy in the CIA model of arthritis in mice (previously found) (CIA mice [3]): little efficacy

O=C(O)c1cc(/N=N/c2ccc(S(=O)(=O)Nc3ccccn3)cc2)ccc1O [sulphasalazine]
clinical scores compared to disease control mice [2]: significantly lower
colon shortening compared to disease control mice [2]: reduced colon shortening
clinical scores or colon lengths relative to saline-treated mice [2]: no significant difference
^99mTc-EC20 uptake in colon relative to saline-treated mice [2]: significantly less
^99mTc-EC20 radioimages compared with the earlier time point (day 4) [2]: essentially unchanged
macrophage accumulation in large intestine compared to the disease control group (macrophage accumulation): reduced macrophage accumulation

CCCCC(=O)N(Cc1ccc(-c2ccccc2-c2nnn[nH]2)cc1)[C@H](C(=O)O)C(C)C [valsartan]
plaque formation in murine models of atherosclerosis (have been shown) (ApoE−/− mice [4]): reduce plaque formation
^99mTc-EC20 uptake in chest cavities relative to saline-treated mice (ApoE−/− mice [5]; after 3 weeks of daily treatment): significantly less
aortic wall thickening relative to saline-treated mice (ApoE−/− mice [5]; after 12 weeks of daily therapy, H&E): significantly reduced

etanercept
disease symptoms (arthritis score, paw swelling) relative to disease control (CIA mice [1]; CIA mice): no significant difference
uptake of ^99mTc-EC20 in the affected appendages relative to disease control (CIA mice [1]; CIA mice): significantly less uptake
disease symptoms / joint inflammation (arthritis score, paw thickness) relative to disease control (CIA mice [1]; CIA mice, day 11 of therapy): significantly reduced inflammation
fibrosis by H&E analysis of the lungs ([6]; day 15 of treatment): reduced fibrosis
hydroxyproline contents in resected lung tissues compared to saline-treated controls ([6]; day 15 of treatment): reduced hydroxyproline contents
total cell counts in bronchoalveolar lavage fluids compared to saline-treated controls ([6]; day 15 of treatment): decreased total cell counts
accumulation of ^99mTc-EC20 compared to saline-treated disease controls ([6]; six days of treatment): decreased accumulation
